Publication PMC4407702 (International journal of pharmaceutics, 2011)
In brackets after ≈: the same amount, converted by molar mass. Several values for one entry are separate records, joined by “and”; a condition that tells them apart may be missing. Equal values may be shown once. Read-outs that look alike come from different tables or passages of the source.

What was measured:
SVCT [1] = target: SVCT (Homo sapiens, UniProt Q9UHI7); assay: Inhibition of [14C]AA uptake in Caco-2 cells; assay type: cell-based; settings: 200 μM unlabeled compound, [14C]AA 23.5 μM
Chain of SVCT (Homo sapiens, UniProt Q9UHI7) (Q9UHI7 whole entry): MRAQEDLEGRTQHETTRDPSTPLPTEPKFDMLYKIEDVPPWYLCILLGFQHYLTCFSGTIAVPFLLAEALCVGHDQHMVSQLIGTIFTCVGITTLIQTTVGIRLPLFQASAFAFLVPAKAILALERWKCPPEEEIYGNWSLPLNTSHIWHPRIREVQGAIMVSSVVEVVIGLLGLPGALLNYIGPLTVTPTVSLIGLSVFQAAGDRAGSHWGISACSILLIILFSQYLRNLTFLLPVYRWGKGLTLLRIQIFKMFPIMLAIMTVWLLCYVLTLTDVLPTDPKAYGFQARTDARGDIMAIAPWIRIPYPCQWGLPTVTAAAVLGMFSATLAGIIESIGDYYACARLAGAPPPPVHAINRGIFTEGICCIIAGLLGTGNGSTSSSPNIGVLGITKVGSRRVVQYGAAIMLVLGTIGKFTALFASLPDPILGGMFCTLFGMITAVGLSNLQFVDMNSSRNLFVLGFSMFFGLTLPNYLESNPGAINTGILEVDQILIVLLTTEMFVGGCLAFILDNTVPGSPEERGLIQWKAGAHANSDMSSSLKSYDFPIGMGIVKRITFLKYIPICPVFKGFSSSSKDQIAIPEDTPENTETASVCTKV

[2] = Transepithelial transport across Caco-2 cell monolayers; assay type: in vitro ADME; settings: human, Caco-2
Caco-2 cell monolayers [3] = assay: as above; assay type: in vitro ADME
SVCT [4] = target: SVCT (Canis lupus familiaris, UniProt A8CX01); assay: Inhibition of [14C]AA uptake in MDCK-MDR1 cells; assay type: cell-based, canine; settings: 200 μM unlabeled compound, [14C]AA 23.5 μM
Chain of SVCT (Canis lupus familiaris, UniProt A8CX01) (A8CX01 1-605): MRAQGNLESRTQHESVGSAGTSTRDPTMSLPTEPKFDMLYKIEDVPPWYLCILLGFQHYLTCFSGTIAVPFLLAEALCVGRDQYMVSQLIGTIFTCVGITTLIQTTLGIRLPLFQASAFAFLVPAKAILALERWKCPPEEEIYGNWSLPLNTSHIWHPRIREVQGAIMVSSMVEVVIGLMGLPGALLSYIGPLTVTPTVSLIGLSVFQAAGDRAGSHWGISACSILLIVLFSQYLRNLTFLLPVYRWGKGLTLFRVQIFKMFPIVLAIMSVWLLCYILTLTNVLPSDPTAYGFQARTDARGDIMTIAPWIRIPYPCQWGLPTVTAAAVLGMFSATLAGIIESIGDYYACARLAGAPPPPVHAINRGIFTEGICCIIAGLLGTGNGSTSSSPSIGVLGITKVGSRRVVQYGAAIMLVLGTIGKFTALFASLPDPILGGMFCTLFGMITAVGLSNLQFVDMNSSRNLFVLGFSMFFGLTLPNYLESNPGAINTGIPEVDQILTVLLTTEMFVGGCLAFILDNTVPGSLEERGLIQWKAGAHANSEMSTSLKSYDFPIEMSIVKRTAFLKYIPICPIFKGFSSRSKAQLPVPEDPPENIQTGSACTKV

[5] = system: MDCK-MDR1 cell monolayers; settings: ref Jain et al., 2005; cited from earlier work
Caco-2 cell monolayers [6] = settings: ref Ucpinar and Stavchansky, 2003; cited from earlier work
Aqueous solubility study = assay type: physicochemical; settings: distilled deionized water, 25 °C, thermodynamic from solid
[7] = Caco-2, [14C]AA 23.5 μM or AA-Su-Saq 25 μM donor, 3 h

Inhibition of [14C]AA uptake (SVCT [1]) [%] | Papp A→B at 3 h, 23.5 μM [2] [×10⁻⁶ cm/s] | Papp B→A at 3 h, 23.5 μM [2] [×10⁻⁶ cm/s] | P(A–B) (Caco-2 cell monolayers [3]; [7]) | P(B–A) (Caco-2 cell monolayers [3]; [7]) | PA–B and PB–A in Caco-2 cells higher than in MDCK-MDR1 cells (Caco-2 cell monolayers [3]; Caco-2 vs MDCK-MDR1) | Uptake of [14C]AA diminished (inhibition) (SVCT [4]) [%] | solubility at 24 h (Aqueous solubility study) [µM] | Compound | P(A–B) [5] | P(B–A) [5] | PA–B [5] [×10⁻⁶ cm/s] | P(A–B) (Caco-2 cell monolayers [6]) | P(B–A) (Caco-2 cell monolayers [6])
66 | 17.6 ± 0.39 | 15.5 ± 3.11 | 17.6 ± 0.39 cm/s, × 10^−6 | 15.5 ± 3.11 cm/s, × 10^−6 | about 2 fold | 65 | – | O=C1O[C@H]([C@@H](O)CO)C(O)=C1O [AA, L-Ascorbic acid] | – | – | – | – | –
– | – | – | – | – | – | – | 1750 ± 290 (≈ 1170 µg/mL) | CC(C)(C)NC(=O)[C@@H]1C[C@@H]2CCCC[C@@H]2CN1C[C@@H](O)[C@H](Cc1ccccc1)NC(=O)[C@H](CC(N)=O)NC(=O)c1ccc2ccccc2n1 [Saq, Saquinavir] | 0.463 ± 0.025 cm/s, × 10^−6 | 19.9 ± 1.70 cm/s, × 10^−6 | 0.463 | 0.93 cm/s, × 10^−6 and 0.93 ±0.10 cm/s, × 10^−6 | 20.39 ± 1.53 cm/s, × 10^−6
